Measurements taken from patent US20050048127A1, “Small spherical particles of low molecular weight organic molecules and methods of preparation and use thereof” (priority 2003, published 2005).

Assays:
[1] = Formation of small spherical particles from first/second solvent mixtures on glass slide under nitrogen flow, graded by polarized light microscope; assay type: physicochemical; set-up: key: (+) = predominantly small spherical particles; (+/−) = a mixture of small spherical particles and non-spherical particles; (−) = predominantly non-spherical particles; ppt = the steroid precipitated out during addition of the second solvent
Text: The ability to form small spherical particles of two steroids, beclomethasone dipropionate (BDP) and fluticasone propionate (FP) was examined in matrix experiments using acetone, ethanol, methanol, and methyl ethyl ketone (MEK) individually as the first solvents and water and heptane individually as the second solvents. The amount of second solvent added to the first solvent/steroid solution was varied as 0%, 10%, 20%, 30%, and 40% (v/v). MEK is not miscible with water and methanol is not miscible with heptane, so those combinations were not included in the experiment.
Either BDP or FP was weighed into a large screw cap glass tube and the solvent of choice was added (w/v) to yield a final concentration of 2 mg/mL. The tubes were vortexed and sonicated to completely dissolve the steroid. The sealed tubes containing these solutions were used as stock solutions for subsequent mixture with the appropriate second solvent. Immediately prior to use, an appropriate amount of the second solvent was slowly added to the first solvent/steroid solution while mixing to avoid premature precipitation. After adding the second solvent, the solutions were visually examined to ensure that premature precipitation had not occurred.
A fixture was constructed such that a 0.125-inch diameter orifice nozzle was positioned 1.75 inches above a standard glass microscope slide. Nitrogen gas was allowed to flow at 5 liters per minute through the nozzle and over the slide such that the flow direction of the gas was perpendicular to the surface of the slide. One or two drops of the test solution were placed on the slide directly under the orifice, and the nitrogen flow continued until the slide was dry (one to three minutes depending on the solution composition). Each slide was then examined under a polarized light microscope (Leica EPISTAR, Buffalo, N.Y.) using incident lighting. Each slide was graded for the presence of predominantly small spherical particles (+), a mixture of small spherical particles and non-spherical particles (+/−), and predominantly non-spherical particles (−). Variations in size and size distribution were observed between different test solutions.

[2] = Particle morphology and size by scanning electron microscopy (SEM); assay type: physicochemical; conditions: broad distribution, some particles larger than upper value
Experimental: Particle morphology for the following examples was obtained using Scanning Electron Microscopy (SEM, FEI Quanta 200, Hilsboro, Oreg.). The sample was prepared for analysis by placing a small amount on carbon double-stick tape fixed to an aluminum sample mount. The sample was then sputter-coated using a Cressington sputter coater 108 Auto for 90 seconds and 20 mA. A second SEM instrument (Amray 1000, Bedford, Mass.) was used to obtain additional images of the small spherical particles, due to its higher resolution capabilities. Particle morphology for the following examples was obtained using Scanning Electron Microscopy (FEI Quanta 200, Hilsboro, Oreg.). FIG. 4 presents SEM of micronized budesonide starting material and FIG. 5 presents SEM of the resulting budesonide small spherical particles.

[3] = first solvent MEK, 0% second solvent (2 mg/mL stock solution)
[4] = first solvent acetone, 0% second solvent (2 mg/mL stock solution)
[5] = first solvent acetone, 10% heptane
[6] = first solvent acetone, 10% water
[7] = first solvent acetone, 20% heptane
[8] = first solvent acetone, 20% water
[9] = first solvent acetone, 30% heptane
[10] = first solvent acetone, 30% water
[11] = first solvent acetone, 40% heptane
[12] = first solvent acetone, 40% water
[13] = first solvent ethanol, 0% second solvent (2 mg/mL stock solution)
[14] = first solvent ethanol, 10% heptane
[15] = first solvent ethanol, 10% water
[16] = first solvent ethanol, 20% heptane
[17] = first solvent ethanol, 20% water
[18] = first solvent ethanol, 30% heptane
[19] = first solvent ethanol, 30% water
[20] = first solvent ethanol, 40% heptane
[21] = first solvent ethanol, 40% water
[22] = first solvent methanol, 0% second solvent (2 mg/mL stock solution)
[23] = first solvent methanol, 10% water
[24] = first solvent methanol, 20% water
[25] = first solvent methanol, 30% water
[26] = first solvent methanol, 40% water

Row | Formation of small spherical particles [1, 3] | Formation of small spherical particles ([1]; first solvent MEK, 10% heptane) | Formation of small spherical particles ([1]; first solvent MEK, 20% heptane) | Formation of small spherical particles ([1]; first solvent MEK, 30% heptane) | Formation of small spherical particles ([1]; first solvent MEK, 40% heptane) | Formation of small spherical particles [1, 4] | Formation of small spherical particles [1, 5] | Formation of small spherical particles [1, 6] | Formation of small spherical particles [1, 7] | Formation of small spherical particles [1, 8] | Formation of small spherical particles [1, 9] | Formation of small spherical particles [1, 10] | Formation of small spherical particles [1, 11] | Formation of small spherical particles [1, 12] | Formation of small spherical particles [1, 13] | Formation of small spherical particles [1, 14] | Formation of small spherical particles [1, 15] | Formation of small spherical particles [1, 16] | Formation of small spherical particles [1, 17] | Formation of small spherical particles [1, 18] | Compound | also measured
1 | +/− | − | − | − | − | + | + | + | + | +/− | +/− | − | +/− | − | +/− | − | +/− | − | +/− | − | CCC(=O)O[C@]1(C(=O)SCF)[C@H](C)C[C@H]2[C@@H]3C[C@H](F)C4=CC(=O)C=C[C@]4(C)[C@@]3(F)[C@@H](O)C[C@@]21C [Fluticasone propionate] | Formation of small spherical particles [1, 19]: −; Formation of small spherical particles [1, 20]: −; Formation of small spherical particles [1, 21]: −; Formation of small spherical particles [1, 22]: −; Formation of small spherical particles [1, 23]: −; Formation of small spherical particles [1, 24]: ppt; Formation of small spherical particles [1, 25]: ppt; Formation of small spherical particles [1, 26]: ppt
2 |  |  |  |  |  |  |  |  |  |  |  |  |  |  |  |  |  |  |  |  | CCC(=O)OCC(=O)[C@@]1(OC(=O)CC)[C@@H](C)C[C@H]2[C@@H]3CCC4=CC(=O)C=C[C@]4(C)[C@@]3(Cl)[C@@H](O)C[C@@]21C [micronized BDP starting material, beclomethasone dipropionate] | particle size distribution [2]: 5-50 microns
3 | +/− | + | + | + | + | + | + | + | + | + | +/− | + | +/− | + | + | + | + | +/− | + | +/− | CCC(=O)OCC(=O)[C@@]1(OC(=O)CC)[C@@H](C)C[C@H]2[C@@H]3CCC4=CC(=O)C=C[C@]4(C)[C@@]3(Cl)[C@@H](O)C[C@@]21C [Beclomethasone dipropionate] | Formation of small spherical particles [1, 19]: +; Formation of small spherical particles [1, 20]: +/−; Formation of small spherical particles [1, 21]: +; Formation of small spherical particles [1, 22]: +; Formation of small spherical particles [1, 23]: +; Formation of small spherical particles [1, 24]: +; Formation of small spherical particles [1, 25]: +; Formation of small spherical particles [1, 26]: +
